One assay addresses T1, Jak1 (Homo sapiens, UniProt P23458).
T1 construct: using a recombinant purified GST-tagged catalytic domain for each enzyme; GST; purchased Invitrogen M4290
Description: Jak Biochemical HTRF Assay (Jak1). The conditions noted are these: IC50 class, recombinant GST-tagged catalytic domain, read-out: Jak1 activity. The procedure, abridged: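 Recombinant GST-tagged Jak1 catalytic domain was preincubated with compound and peptide substrate for 30 min at room temperature, and the reaction was then started with ATP and run 120 min. Buffer contained 2 mM DTT and 0.05% BSA. Read-out was HTRF (665/615 nm) with Eu-pY20 antibody and streptavidin-Dylight, and IC50 values came from 4-parameter fits of percent inhibition.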
In general terms: TR-FRET usually uses a lanthanide donor and a delayed reading to cut background.
T1 sequence (P23458 875-1153 limits assumed): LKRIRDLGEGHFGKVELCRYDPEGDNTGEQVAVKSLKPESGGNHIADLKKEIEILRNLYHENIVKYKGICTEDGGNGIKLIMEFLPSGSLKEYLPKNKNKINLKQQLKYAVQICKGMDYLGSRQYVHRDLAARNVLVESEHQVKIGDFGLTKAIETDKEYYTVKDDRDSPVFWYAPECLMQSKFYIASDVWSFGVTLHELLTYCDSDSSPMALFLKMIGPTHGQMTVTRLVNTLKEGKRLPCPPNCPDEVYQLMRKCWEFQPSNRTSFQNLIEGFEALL
For `O=C(Cn1cc2ccccc2n1)N1CCC[C@@H]2[C@H]1CCN2c1ncnc2[nH]ccc12` [Example 29-54, 4-[(3aR,7aR)-4-(2H-indazol-2-ylacetyl)octahydro-1H-pyrrolo[3,2-b]pyridin-1-yl]-7H-pyrrolo[2,3-d]pyrimidine], the IC50 lay in the range of 100 to 1000 nM.
`CN1CCCC(CCC(=O)N2CCC[C@@H]3[C@H]2CCN3c2ncnc3[nH]ccc23)C1` (stereo partly drawn) [Example 29-55, 4-{(3aR,7aR)-4-[3-(1-methylpiperidin-3-yl)propanoyl]octahydro-1H-pyrrolo[3,2-b]pyridin-1-yl}-7H-pyrrolo[2,3-d]pyrimidine]: the IC50 is 100 to 1000 nM.
`O=C(c1cc(-c2cccc(F)c2)no1)N1CCC[C@@H]2[C@H]1CCN2c1ncnc2[nH]ccc12` [Example 29-57, 4-[(3aR,7aR)-4-{[3-(3-fluorophenyl)isoxazol-5-yl]carbonyl}octahydro-1H-pyrrolo[3,2b]pryidin-1-yl]-7H-pyrrolo[2,3-d]pyrimidine]: the IC50 lay within 100 to 1000 nM.
Turning to `Cn1ncc2cc(CC(=O)N3CCC[C@@H]4[C@H]3CCN4c3ncnc4[nH]ccc34)ccc21` [Example 29-59, 4-{(3aR,7aR)-4-[(1-methyl-1H-indazol-5-yl)acetyl]octahydro-1H-pyrrolo[3,2-b]pyridin-1-yl}-7H-pyrrolo[2,3-d]pyrimidine], the IC50 lay in the range of 100 to 1000 nM.
Regarding `O=C(c1cn2ccc(Cl)cc2n1)N1CCC[C@@H]2[C@H]1CCN2c1ncnc2[nH]ccc12` [Example 29-60, 4-{(3aR,7aR)-4-[(7-chloroimidazo[1,2-a]pyridin-2-yl)carbonyl]octahydro-1H-pyrrolo[3,2-b]pyridin-1-yl}-7H-pyrrolo[2,3-d]pyrimidine], the IC50 lay within 100 to 1000 nM.
Turning to `O=C(c1ccnc2ccccc12)N1CCC[C@@H]2[C@H]1CCN2c1ncnc2[nH]ccc12` [Example 29-61, 4-{[(3aR,7aR)-1-(7H-pyrrolo[2,3-d]pyrimidin-4-yl)octahydro-4H-pyrrolo[3,2-b]pyridin-4-yl]carbonyl}quinoline], the IC50 lay in the range of 10 to 100 nM.
The same measure, in the same setting: the value for `O=C1NCc2ccc(C(=O)N3CCC[C@@H]4[C@H]3CCN4c3ncnc4[nH]ccc34)cc21` [Example 29-62, 6-{[(3aR,7aR)-1-(7H-pyrrolo[2,3-d]pyrimidin-4-yl)octahydro-4H-pyrrolo[3,2-b]pyridin-4-yl]carbonyl}-2,3-dihydro-1H-isoindol-1-one] was 10 to 100 nM.
Same read-out and setting: next, `O=C(OCc1ccccc1)N1CCCC2C1CCN2c1ccnc2[nH]ccc12` [Example 30, (3aS,7aS and 3aR,7aR) benzyl 1-(1H-pyrrolo[2,3-b]pyridine-4-yl)octahydro-4H-pyrrolo[3,2-b]pyridine-4-carboxylate]: 100 to 1000 nM; `c1ccc(-c2nnc(N3CCCC4C3CCN4c3ncnc4[nH]ccc34)o2)cc1` [Example 31, (3aS,7aS and 3aR,7aR) 4-[4-(5-phenyl-1,3,4-oxadiazol-2-yl)octahydro-1H-pyrrolo[3,2-b]pyridin-1-yl]-7H-pyrrolo[2,3-d]pyrimidine]: 100 to 1000 nM.
The same measure, in the same setting: next, `CC(C)S(=O)(=O)N1CCC[C@@H]2[C@H]1CCN2c1ncnc2[nH]ccc12` [Example 32-1, 4-{(3aR,7aR)-4-[(1-methylethyl)sulfonyl]octahydro-1H-pyrrolo[3,2-b]pyridin-1-yl}-7H-pyrrolo[2,3-d]pyrimidine]: 10 to 100 nM; `O=S(=O)(CCc1ccccc1)N1CCC[C@@H]2[C@H]1CCN2c1ncnc2[nH]ccc12` [Example 32-2, 4-{(3aR,7aR)-4-[(2-phenylethyl)sulfonyl]octahydro-1H-pyrrolo[3,2-b]pyridin-1-yl}-7H-pyrrolo[2,3-d]pyrimidine]: 1 to 10 nM; `O=S(=O)(c1ccco1)N1CCC[C@@H]2[C@H]1CCN2c1ncnc2[nH]ccc12` [Example 32-4, 4-[(3aR,7aR)-4-(furan-2-ylsulfonyl)octahydro-1H-pyrrolo[3,2-b]pyridin-1-yl]-7H-pyrrolo[2,3-d]pyrimidine]: 10 to 100 nM.

Staying with this assay, now noted: recombinant GST-tagged catalytic domain, 31.8 μM ATP, read-out: Representative IC50 values.
With `O=S(=O)(CCc1ccccc1)N1CCC[C@@H]2[C@H]1CCN2c1ncnc2[nH]ccc12` [Example 32-2, 4-{(3aR,7aR)-4-[(2-phenylethyl)sulfonyl]octahydro-1H-pyrrolo[3,2-b]pyridin-1-yl}-7H-pyrrolo[2,3-d]pyrimidine], the IC50 amounted to 7 nM.
Regarding `O=S(=O)(c1ccco1)N1CCC[C@@H]2[C@H]1CCN2c1ncnc2[nH]ccc12` [Example 32-4, 4-[(3aR,7aR)-4-(furan-2-ylsulfonyl)octahydro-1H-pyrrolo[3,2-b]pyridin-1-yl]-7H-pyrrolo[2,3-d]pyrimidine], the IC50 came out at 14 nM.
